# Tests used:
# Type in all cases: in vivo, mouse
# [1] = system: carbon tetrachloride-induced liver fibrosis mice; assay: Carbon tetrachloride-induced liver fibrosis mice, Example 31, Table 57; settings: CCl4-induced liver fibrosis mice, untreated = 100%
# How it was run: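 Mice with induced hepatic fibrosis received either the test compound or, as controls, an equal volume of vehicle solution alone. Once dosing ended, liver tissue was harvested and total RNA was isolated. cDNA was synthesized from this RNA, and quantitative RT-PCR was run on it to measure hepatic mRNA levels of the fibrosis- and senescence-related genes.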
# [2] = system: naturally aged C57BL6J mice; assay: Lipofuscin staining in muscle of naturally aged mice, Example 21-4; settings: untreated aged = 100, LX-5701 360 mg/kg po, LX-2101 20 mg/kg ip, LX-2102 10 mg/kg ip, daily 21 days
# Description: 22-month-old female C57BL6J mice (KRIBB Laboratory Animal Resource Center) were acclimated to the experimental environment for one week, after which the aged mice were randomly assigned to experimental and control groups. Eight-week-old, non-aged mice served as controls. LX-403 was mixed in a 10% ethanol solution of PEG400 and administered orally at a concentration of 25 mg/kg daily for 21 days, or administered to the skin, joints, or eyes at a concentration of 1 μM. LX-1801 was mixed in distilled water with 4% DMSO, 30% PEG300, and 5% Tween80 and administered to the skin, joints, or eyes at a concentration of 0.4 μM daily for 21 days. LX-2001 was mixed in PBS and administered to the skin, joints, or eyes at a concentration of […] daily for 21 days. LX-2002 was mixed in distilled water with 4% DMSO, 30% PEG300, and 5% Tween80 and administered to the skin, joints, or eyes at a concentration of 2 μM daily for 21 days. […] LX-2005 was mixed in distilled water with 4% DMSO, 30% PEG300, and 5% Tween80 and administered to the skin, joints, or eyes at a concentration of 90 μM daily for 21 days. LX-2007 was mixed in distilled water with 4% DMSO, 30% PEG300, and 5% Tween80 and administered to the skin, joints, or eyes at a concentration of 90 μM daily for 21 days. […] LX-3002 was mixed in distilled water with 4% DMSO, 30% PEG300, and 5% Tween80 and administered orally at a concentration of 10 mg/kg daily for 21 days. […] LX-5411 was mixed in 5% PBS and administered orally at a concentration of 10 mg/kg daily for 21 days or administered to the skin, joints, or eyes at a concentration of 3 μM. LX-5701 was mixed in PBS and administered orally at a concentration of 360 mg/kg daily for 21 days. LX-6807 was mixed in saline and administered intraperitoneally at a concentration of 1 mg/kg daily for 21 days. LX-2101 or LX-2102 was mixed in PBS solution with 5% DMSO and administered intraperitoneally at a concentration of 20 mg/kg or 10 mg/kg, respectively, daily for 21 days. […]
# Mice were sacrificed and evaluated using the same method as in Example 7-4 of WO2023-085787 A1. […]
# [3] = system: naturally aged C57BL6J mice; assay: Serum IL6 and MCP1 (ELISA) in naturally aged mice, Example 21-5; settings: untreated aged = 100, LX-5701 360 mg/kg po, LX-2101 20 mg/kg ip, LX-2102 10 mg/kg ip, daily 21 days
# Description: 22-month-old female C57BL6J mice (KRIBB Laboratory Animal Resource Center) were acclimated to the experimental environment for one week, after which the aged mice were randomly assigned to experimental and control groups. Eight-week-old, non-aged mice served as controls. LX-403 was mixed in a 10% ethanol solution of PEG400 and administered orally at a concentration of 25 mg/kg daily for 21 days, or administered to the skin, joints, or eyes at a concentration of 1 μM. LX-1801 was mixed in distilled water with 4% DMSO, 30% PEG300, and 5% Tween80 and administered to the skin, joints, or eyes at a concentration of 0.4 μM daily for 21 days. LX-2001 was mixed in PBS and administered to the skin, joints, or eyes at a concentration of […] daily for 21 days. LX-2002 was mixed in distilled water with 4% DMSO, 30% PEG300, and 5% Tween80 and administered to the skin, joints, or eyes at a concentration of 2 μM daily for 21 days. […] LX-2005 was mixed in distilled water with 4% DMSO, 30% PEG300, and 5% Tween80 and administered to the skin, joints, or eyes at a concentration of 90 μM daily for 21 days. LX-2007 was mixed in distilled water with 4% DMSO, 30% PEG300, and 5% Tween80 and administered to the skin, joints, or eyes at a concentration of 90 μM daily for 21 days. […] LX-3002 was mixed in distilled water with 4% DMSO, 30% PEG300, and 5% Tween80 and administered orally at a concentration of 10 mg/kg daily for 21 days. […] LX-5411 was mixed in 5% PBS and administered orally at a concentration of 10 mg/kg daily for 21 days or administered to the skin, joints, or eyes at a concentration of 3 μM. LX-5701 was mixed in PBS and administered orally at a concentration of 360 mg/kg daily for 21 days. LX-6807 was mixed in saline and administered intraperitoneally at a concentration of 1 mg/kg daily for 21 days. LX-2101 or LX-2102 was mixed in PBS solution with 5% DMSO and administered intraperitoneally at a concentration of 20 mg/kg or 10 mg/kg, respectively, daily for 21 days. The control group received only the solution in the same volume. After the end of drug administration, the methods described in each example below were performed.
# The amounts of IL6 and MCP1, senescence-associated secretory factors (SASPs), in serum collected from mice were measured using an enzyme-linked immunosorbent assay (ELISA Kit, R&D Systems).
# C57BL6-ApoE−/− mice = assay: Atherosclerosis in ApoE-/- mice (p16 mRNA, vascular plaque), Example 27, Table 51; settings: high-fat diet ApoE−/− mice; for p16 mRNA: aortic arch of thoracic aorta, untreated 100%; for Plaque number: thoracic aorta, Oil Red O, untreated 21.4 (±5.7)
# Description: Fifteen-week-old male C57BL6-ApoE^−/−-mice (SLC) with atherosclerosis induced by a high-fat diet in the same manner as in Example 9-1 of WO2023-085787 A1 were acclimated to the experimental environment for one week and then randomly assigned to experimental and control groups. […] The control group was administered only the solution in the same volume. After the drug administration was terminated, the mice were sacrificed, and RNA was extracted from the aortic arch of the thoracic aorta using the same method as Example 7-2 of WO2023-085787 A1, and qRT-PCR was performed using the synthesized cDNA. In addition, the remaining part of the thoracic aorta was dissected, fixed flat in 4% paraformaldehyde at room temperature for 12 hours, and the vascular plaque was stained with Oil Red O using the same method as Example 23-5. […] The mRNA amount after aging was induced was calculated as 100% and compared with the mRNA amount of p16 after treatment with the test compound.
Compound,Liver p16 mRNA [1],Col1a1 mRNA [1],Lipofuscin (staining area) [2],IL6 [3],MCP1 [3],p16 mRNA (C57BL6-ApoE−/− mice),Plaque number (C57BL6-ApoE−/− mice)
O=C(C(C[N+](=O)[O-])=NO)N1CCN(C(c2ccc(Cl)cc2)c2ccc(Cl)cc2)CC1 [LX-403],51 (±3.8) %,48 (±5.8) %,,,,,
S=C(N/N=C1\CCCc2cccnc21)N1CCN(c2ccccn2)CC1 [LX-801],57 (±9.3) %,63 (±11.5) %,,,,,
"C[C@@H]1CC[C@@]23C[C@H](O)C(=O)[C@@]2(O)[C@]1(C)[C@H](OC(=O)CCl)C[C@@H](C1=CCn2c(=O)n(-c4ccccc4)c(=O)n2C1)[C@@H]3C [LX-1801, (2S,3aS,4S,5R,7R,8S,8aS,11R)-7-(1,3-Dioxo-2-phenyl-2,3,5,8-tetrahydro-1H-[1,2,4]triazolo[1,2-a]pyridazin-6-yl)-2,3a-dihydroxy-4,8,11-trimethyl-3-oxooctahydro-1H-4,8a-propanoazulen-5-yl 2-Chloroacetate]",55 (±9.8) %,58 (±7.9) %,,,,,
"CC1(C)CC[C@]2(NC(=O)C(C)(F)F)CC[C@]3(C)[C@H](C(=O)C=C4[C@@]5(C)C=C(C#N)C(=O)C(C)(C)[C@@H]5CC[C@]43C)[C@@H]2C1 [LX-2101, Omaveloxolone]",,,64 (±11.6) %,49 (±21.8) %,58 (±9.5) %,,
"COC(=O)[C@]12CCC(C)(C)C[C@H]1[C@H]1C(=O)C=C3[C@@]4(C)C=C(C#N)C(=O)C(C)(C)[C@@H]4CC[C@@]3(C)[C@]1(C)CC2 [LX-2102, Bardoxolone methyl]",,,71 (±8.1) %,58 (±16.1) %,61 (±14.0) %,,
"CCCC\C=C/C=C/C=C\CCCCCCCC(=O)O [LX-2707, Punicic acid]",,,,,,81 (±6.0) %,19.4 (±3.6)
"COC(=O)[C@H]1Cc2c([nH]c3ccccc23)[C@H](c2ccc(S(C)(=O)=O)cc2)N1C(=O)CCl [LX-5401, methyl (1S,3R)-2-(2-chloroacetyl)-1-(4-(methylsulfonyl)phenyl)-2,3,4,9-tetrahydro-1H-pyrido[3,4-b]indole-3-carboxylate]",61 (±13.2) %,72 (±5.9) %,,,,,
C#CC(=O)N1[C@@H](CCCC)Cc2cc(OC)ccc2[C@@H]1c1ccc(NC23CC4CC(CC(C4)C2)C3)cc1 [LX-5411],53 (±9.9) %,43 (±16.1) %,,,,,
O=C1C2CCN(CC2)C1CNC(=O)C(F)(F)F (stereo not drawn) [LX-5701],,,69 (±10.8) %,68 (±14.1) %,62 (±9.8) %,71 (±12.8) %,12.7 (±4.6)
"Cc1cccc([C@H](C)c2cnc[nH]2)c1C [LX-6807, Dexmedetomidine]",,,,,,59 (±4.7) %,15.3 (±2.4)
Tocofersolan [LX-3001],,,,,,78 (±7.2) %,17.5 (±4.2)

# Source: US20260306460A1, “COMPOSITION FOR REMOVING AND INHIBITING SENESCENT CELLS, AND USES THEREOF” (LIFECEUTIX CO., LTD., priority 2023, published 2026)
